From US20250154138A1, “Small Molecule IL-17A Modulators” (BeiGene, Ltd., priority 2022, published 2025)

How the values were obtained:
[1] = test system: IL-17-induced GROα secretion from HT-29 cells; assay: GROα release assay in human colorectal adenocarcinoma epithelial cell (HT-29, ELISA); type: cell-based; details: Homo sapiens, HT-29, 48 h, 10 ng/mL IL-17A, highest concentration 10 μM, read-out: Cellular assay HT29 cell/CXCL1 IC50
Summary of the method: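 HT-29 cells were exposed 48 h at 37°C to IL-17A (final 10 ng/mL) preincubated 15 min with compound (4-fold dilutions, top 10 μM). Secreted GROα was quantified by ELISA against a standard curve, and IC50 obtained by four-parameter fitting.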

[2] = biological target: human IL-17A / human IL-17RA (Homo sapiens (Human), UniProt Q16552); assay: Human IL-17A biochemical assay (HTRF, blocking of IL-17A binding to IL-17RA); details: 0.4 nM IL-17A, 0.3 nM IL-17RA, max compound concentration 10 uM
Summary of the method: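 Recombinant human IL-17A (0.4 nM) was pre-incubated with compound (top 10 uM, 2.7-fold, 10 points) for 3 h at room temperature in 20 mM HEPES pH 7.5, 50 mM NaCl, 0.1% BSA, 0.2 mM DTT, 0.005% Tween 20. IL-17RA (0.3 nM) was then added for 1 h, followed by anti-6His Tb and anti-human IgG-XL665 detection for 1 h; IC50 from four-parameter fit.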

human IL-17A / human IL-17RA, sequence (Q16552 24-155): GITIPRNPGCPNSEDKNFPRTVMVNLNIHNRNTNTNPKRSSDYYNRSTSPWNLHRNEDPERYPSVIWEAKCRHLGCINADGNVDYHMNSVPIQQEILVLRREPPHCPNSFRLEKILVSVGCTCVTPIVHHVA

| Structure (SMILES) | IC50 [1] | IC50 [2] |
| --- | --- | --- |
| CNC(=O)C1(N2CC(C)NC2=O)Cc2cc(NC(=O)[C@@H](NC(=O)c3ccnn3C)C3CCCCC3)sc2C1 (stereo partly drawn) [Example 9, N-((1S)-1-cyclohexyl-2-((5-(4-methyl-2-oxoimidazolidin-1-yl)-5-(methylcarbamoyl)-5,6-dihydro-4H-cyclopenta[b]thiophen-2-yl)amino)-2-oxoethyl)-1-methyl-1H-pyrazole-5-carboxamide] | > 10000 nM | 8000 nM |
| Cc1cccc(NC(=O)C2(N3CC4(CC4)CNC3=O)Cc3ccc(NC(=O)[C@@H](NC(=O)c4nonc4C)C4CCC(F)(F)CC4)cc3C2)c1 (stereo partly drawn) [Example 229, N-((1S)-1-(4,4-difluorocyclohexyl)-2-oxo-2-((2-(6-oxo-5,7-diazaspiro[2.5]octan-5-yl)-2-(m-tolylcarbamoyl)-2,3-dihydro-1H-inden-5-yl)amino)ethyl)-4-methyl-1,2,5-oxadiazole-3-carboxamide] | 85.1 nM | 28.6 nM |
| CC(C)[C@@H]1CN(CC2Cc3ccc(NC(=O)[C@@H](NC(=O)c4ccnn4C(C)C)C(C4CC4)C4CC4)cc3N2)C(=O)N1 (stereo partly drawn) [Example 286, N-((2S)-1,1-dicyclopropyl-3-((2-(((R)-4-isopropyl-2-oxoimidazolidin-1-yl)methyl)indolin-6-yl)amino)-3-oxopropan-2-yl)-1-isopropyl-1H-pyrazole-5-carboxamide] | 430 nM | 144 nM |
| Cc1nonc1C(=O)N[C@H](C(=O)Nc1ccc2c(c1)CC(C(=O)Nc1ccccc1F)(N1C[C@@H](C(C)C)NC1=O)C2)C1CCC(F)(F)CC1 (stereo partly drawn) [Example 249, N-((1S)-1-(4,4-difluorocyclohexyl)-2-((2-((2-fluorophenyl)carbamoyl)-2-((R)-4-isopropyl-2-oxoimidazolidin-1-yl)-2,3-dihydro-1H-inden-5-yl)amino)-2-oxoethyl)-4-methyl-1,2,5-oxadiazole-3-carboxamide] | 695 nM | 226 nM |
| Cc1nonc1C(=O)N[C@H](C(=O)Nc1ccc2c(c1)CC(C(=O)NCc1cccnn1)(N1CC3(CC3)CNC1=O)C2)C1CCC(F)(F)CC1 (stereo partly drawn) [Example 228, N-((1S)-1-(4,4-difluorocyclohexyl)-2-oxo-2-((2-(6-oxo-5,7-diazaspiro[2.5]octan-5-yl)-2-((pyridazin-3-ylmethyl)carbamoyl)-2,3-dihydro-1H-inden-5-yl)amino)ethyl)-4-methyl-1,2,5-oxadiazole-3-carboxamide] | 49.1 nM | 15.9 nM |
| CNC(=O)C1(N2CC3(CCC3)CNC2=O)Cc2ccc(NC(=O)[C@@H](NC(=O)c3nonc3C)C3CCCCC3)cc2C1 (stereo partly drawn) [Example 110, N-((1S)-1-cyclohexyl-2-((2-(methylcarbamoyl)-2-(7-oxo-6,8-diazaspiro[3.5]nonan-6-yl)-2,3-dihydro-1H-inden-5-yl)amino)-2-oxoethyl)-4-methyl-1,2,5-oxadiazole-3-carboxamide] | 76.5 nM | 15 nM |
| Cc1ccc(F)cc1NC(=O)C1(N2CC3(CC3)CNC2=O)Cc2ccc(NC(=O)[C@@H](NC(=O)c3nonc3C)C3CCC(F)(F)CC3)cc2C1 (stereo partly drawn) [Example 219, N-((1S)-1-(4,4-difluorocyclohexyl)-2-((2-((5-fluoro-2-methylphenyl)carbamoyl)-2-(6-oxo-5,7-diazaspiro[2.5]octan-5-yl)-2,3-dihydro-1H-inden-5-yl)amino)-2-oxoethyl)-4-methyl-1,2,5-oxadiazole-3-carboxamide] | 297 nM | 107 nM |
| CC(C)[C@@H]1CN(C2(C(=O)N[C@H](CO)C3CCCCC3)Cc3ccc(NC(=O)[C@@H](NC(=O)c4ccnn4C)C4CCCCC4)cc3C2)C(=O)N1 (stereo partly drawn) [Example 121, N-((1S)-1-cyclohexyl-2-((2-(((S)-1-cyclohexyl-2-hydroxyethyl)carbamoyl)-2-((R)-4-isopropyl-2-oxoimidazolidin-1-yl)-2,3-dihydro-1H-inden-5-yl)amino)-2-oxoethyl)-1-methyl-1H-pyrazole-5-carboxamide] | 32.3 nM | 16 nM |
| Cc1nonc1C(=O)N[C@H](C(=O)Nc1ccc2c(c1)CC(C(=O)Nc1ccccc1Cl)(N1C[C@@H](C(C)C)NC1=O)C2)C(C1CC1)C1CC1 (stereo partly drawn) [Example 263, N-((2S)-1-((2-((2-chlorophenyl)carbamoyl)-2-((R)-4-isopropyl-2-oxoimidazolidin-1-yl)-2,3-dihydro-1H-inden-5-yl)amino)-3,3-dicyclopropyl-1-oxopropan-2-yl)-4-methyl-1,2,5-oxadiazole-3-carboxamide] | 447 nM | 97.1 nM |
| CNC(=O)C1(N2C[C@@H](C(C)C)NC2=O)Cc2ccc(NC(=O)[C@H](Cc3cc(-c4ccnc(C(C)(C)O)c4)ccc3Cl)NC(=O)c3ccnn3C)cc2C1 (stereo partly drawn) [Example 79, N-((2S)-3-(2-chloro-5-(2-(2-hydroxypropan-2-yl)pyridin-4-yl)phenyl)-1-((2-((R)-4-isopropyl-2-oxoimidazolidin-1-yl)-2-(methylcarbamoyl)-2,3-dihydro-1H-inden-5-yl)amino)-1-oxopropan-2-yl)-1-methyl-1H-pyrazole-5-carboxamide] | 1300 nM | 79 nM |
| CNC(=O)C1(N2C[C@@H](C(C)C)NC2=O)Cc2ccc(NC(=O)[C@@H](NC(=O)c3ccnn3C)C3CCCCCC3)cc2C1 (stereo partly drawn) [Example 47, N-((1S)-1-cycloheptyl-2-((2-((R)-4-isopropyl-2-oxoimidazolidin-1-yl)-2-(methylcarbamoyl)-2,3-dihydro-1H-inden-5-yl)amino)-2-oxoethyl)-1-methyl-1H-pyrazole-5-carboxamide] | 11.6 nM | 11 nM |
| Cc1nonc1C(=O)N[C@H](C(=O)Nc1ccc2c(c1)CC(C(=O)Nc1ccccc1C#N)(N1C[C@@H](C(C)C)NC1=O)C2)C(C1CC1)C1CC1 (stereo partly drawn) [Example 283, N-((2S)-1-((2-((2-cyanophenyl)carbamoyl)-2-((R)-4-isopropyl-2-oxoimidazolidin-1-yl)-2,3-dihydro-1H-inden-5-yl)amino)-3,3-dicyclopropyl-1-oxopropan-2-yl)-4-methyl-1,2,5-oxadiazole-3-carboxamide] | 34.6 nM | 32.5 nM |
| CNC(=O)C1(N2CC3(CCC3)CNC2=O)Cc2ccc(NC(=O)[C@@H](NC(=O)c3ccnn3C)C3CCCCC3)cc2C1 (stereo partly drawn) [Example 108, N-((1S)-1-cyclohexyl-2-((2-(methylcarbamoyl)-2-(7-oxo-6,8-diazaspiro[3.5]nonan-6-yl)-2,3-dihydro-1H-inden-5-yl)amino)-2-oxoethyl)-1-methyl-1H-pyrazole-5-carboxamide] | 42.3 nM | 5.8 nM |
| CNC(=O)C1(N2C[C@@H](C(C)C)NC2=O)Cc2ccc(NC(=O)[C@@H](NC(=O)c3ccnn3C3CC3)C3CCCCC3)cc2C1 (stereo partly drawn) [Example 129, N-((1S)-1-cyclohexyl-2-((2-((R)-4-isopropyl-2-oxoimidazolidin-1-yl)-2-(methylcarbamoyl)-2,3-dihydro-1H-inden-5-yl)amino)-2-oxoethyl)-1-cyclopropyl-1H-pyrazole-5-carboxamide] | 119 nM | 44 nM |
| Cc1nonc1C(=O)N[C@H](C(=O)Nc1ccc2c(c1)CC(C(=O)Nc1cnccc1Cl)(N1C[C@@H](C(C)C)NC1=O)C2)C(C1CC1)C1CC1 (stereo partly drawn) [Example 274, N-((2S)-1-((2-((4-chloropyridin-3-yl)carbamoyl)-2-((R)-4-isopropyl-2-oxoimidazolidin-1-yl)-2,3-dihydro-1H-inden-5-yl)amino)-3,3-dicyclopropyl-1-oxopropan-2-yl)-4-methyl-1,2,5-oxadiazole-3-carboxamide] | 67.6 nM | 42.4 nM |
| CNC(=O)C1(N2CC(C(C)C)NC2=O)Cc2cc3nc([C@@H](NC(=O)c4nonc4C)C4CCCCC4)[nH]c3cc2C1 (stereo partly drawn) [Example 29, N-((1S)-cyclohexyl(6-(4-isopropyl-2-oxoimidazolidin-1-yl)-6-(methylcarbamoyl)-1,5,6,7-tetrahydroindeno[5,6-d]imidazol-2-yl)methyl)-4-methyl-1,2,5-oxadiazole-3-carboxamide] | 146 nM | 160 nM |
| CC(C)n1nccc1C(=O)N[C@H](C(=O)Nc1ccc2c(c1)CC(N1C[C@@H](C(F)(F)F)NC1=O)C2)C1CCCCC1 (stereo partly drawn) [Example 195, N-((1S)-1-cyclohexyl-2-oxo-2-((2-((S)-2-oxo-4-(trifluoromethyl)imidazolidin-1-yl)-2,3-dihydro-1H-inden-5-yl)amino)ethyl)-1-isopropyl-1H-pyrazole-5-carboxamide] | 383 nM | 128 nM |
| Cn1nccc1C(=O)NC(C(=O)Nc1ccc2c(c1)CC(N1C[C@@H](C(F)(F)F)NC1=O)C2)C1Cc2ccc(Cl)cc2C2(CC2)C1 (stereo partly drawn) [Example 224, N-(1-(7′-chloro-3′,4′-dihydro-2′H-spiro[cyclopropane-1,1′-naphthalen]-3′-yl)-2-oxo-2-((2-((S)-2-oxo-4-(trifluoromethyl)imidazolidin-1-yl)-2,3-dihydro-1H-inden-5-yl)amino)ethyl)-1-methyl-1H-pyrazole-5-carboxamide] | 85.1 nM | 47.8 nM |
| Cc1nonc1C(=O)N[C@H](C(=O)Nc1ccc2c(c1)CC(c1nc(-c3ccccc3)c[nH]1)(N1CC3(CC3)CNC1=O)C2)C1CCC(F)(F)CC1 (stereo partly drawn) [Example 205, N-((1S)-1-(4,4-difluorocyclohexyl)-2-oxo-2-((2-(6-oxo-5,7-diazaspiro[2.5]octan-5-yl)-2-(4-phenyl-1H-imidazol-2-yl)-2,3-dihydro-1H-inden-5-yl)amino)ethyl)-4-methyl-1,2,5-oxadiazole-3-carboxamide] | 193 nM | 246 nM |
